Data taken from publication PMC9655037, “Alternation of Organ-Specific Exposure in LPS-Induced Pneumonia Mice after the Inhalation of Tetrandrine Is Governed by Metabolizing Enzyme Suppression and Lysosomal Trapping” (International Journal of Molecular Sciences, 2022).
Read-outs that look alike come from different tables or passages of the source.

Experiment: Pharmacokinetics of TET in blood after a single i.v. administration in normal and LPS-induced ALI mice
Details: male, BALB/c, mouse, in vivo, 5 mg/kg; for AUC(0-inf) / AUC(0-t) / C0 / half-life / clearance / MRT last / Vd: iv, 5 mg/kg i.v., blood; for clearance: read-out: CL (in vivo CLblood) (converted); for MRT last: read-out: MRT(0-t)
Text: Twelve male BALB/c mice were randomly divided into two groups (n = 6 for each group). […]

For `COc1ccc2cc1Oc1ccc(cc1)C[C@H]1c3cc(c(OC)cc3CCN1C)Oc1c(OC)c(OC)cc3c1[C@H](C2)N(C)CC3` [TET, Tetrandrine], the “increased Vz, LPS-treated vs normal mice” value was ~ 134%, the AUC(0-inf) (LPS-treated mice) was 65700 ± 17500 ng·h/mL and the AUC(0-t) (LPS-treated mice) was 44100 ± 8460 ng·h/mL. It also gave a C0 (LPS-treated mice) of 2300 ± 935 ng/mL, a half-life (LPS-treated mice) of 93.2 ± 26.4 h and a clearance (LPS-treated mice) of 1.35 mL/min/kg. It also gave an MRT last (LPS-treated mice) of 137 ± 40.4 h, a Vd (LPS-treated mice, read-out: Vss) of 10.5 ± 1.77 L/kg and a Vd (LPS-treated mice, read-out: Vz) of 10.3 ± 1.75 L/kg. For the same compound, the AUC(0-inf) (normal mice) was 29500 ± 3790 ng·h/mL, the AUC(0-t) (normal mice) was 26300 ± 3420 ng·h/mL and the C0 (normal mice) was 2270 ± 270 ng/mL. For the same compound, the half-life (normal mice) was 30.7 ± 5.21 h, the clearance (normal mice) was 2.87 mL/min/kg and the MRT last (normal mice) was 72.7 ± 6.4 h. For the same compound, the Vd (normal mice, read-out: Vss) was 7.71 ± 2.01 L/kg and the Vd (normal mice, read-out: Vz) was 12.5 ± 1.63 L/kg.
